The results in this text go back to PMC11664502, “Parahydrogen Polarization in Reverse Micelles and Application to Sensing of Protein–Ligand Binding” (Journal of the American Chemical Society, 2024).

The test concerns the target T1, thiaminase II (TenA) (Bacillus subtilis, UniProt P25052).
T1 sequence (P25052 1-236): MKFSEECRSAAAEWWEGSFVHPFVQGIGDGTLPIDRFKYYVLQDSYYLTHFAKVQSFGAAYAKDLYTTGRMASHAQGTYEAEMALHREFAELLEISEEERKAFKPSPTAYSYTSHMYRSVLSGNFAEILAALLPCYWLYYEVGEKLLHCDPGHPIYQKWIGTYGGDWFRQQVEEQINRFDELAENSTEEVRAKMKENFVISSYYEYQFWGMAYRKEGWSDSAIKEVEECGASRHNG
In words: nhPHIP hyperpolarized NMR of iridium hydride signals in reverse micelles; agrees with a titration of TenA with ABAP (KD […]). The test is classed as binding.

By Kd is commonly meant a measure of binding affinity in units of concentration. High values mean a looser complex, low ones a tighter complex. For `Nc1ccnc(NCc2ccccc2)n1` [L, 4-amino-2-benzylaminopyrimidine], binding was characterised by a dissociation constant (Kd) of 39.7 ± 8.9 µM.
